Results from US11337996B2 (priority 2012, dated 2022).
Several values for one entry are separate records, joined by “and”; a condition that tells them apart may be missing. Identical values can stand only once. Entries after “also recorded” stand apart in the source; their conditions may differ. Like-named read-outs stand apart in the source and are kept apart here. Marks after values point to notes of the source that are not given here.

Columns and labels:
[1] = tested on: Clostridium perfringens (CP); format: in vivo, chickens
E. maxima = tested on: E. maxima; design: species or system chickens; conditions: in vivo
[2] = design: species or system Cobb 500 chicks; conditions: in vivo
[3] = tested on: Clostridium perfringens pathogen (CPP); format: in vivo, Cobb 500 chicks; conditions: CPP Challenge
[4] = tested on: Clostridium perfringens pathogen (CPP) + 1 ppm aflatoxin B1; design: species or system Cobb 500 chicks; conditions: in vivo
[5] = tested on: Clostridium perfringens pathogen (CPP) without and with Aflatoxin; design: species or system Cobb 500 chicks; conditions: in vivo
[6] = tested on: Clostridium perfringens (CPP) and aflatoxin; design: species or system Cobb 500 chicks; conditions: in vivo
Clostridium perfringens = format: in vivo, broiler chicken (Cobb X Cobb); conditions: infect
α-toxin antigen = conditions: in vivo
NetB toxin antigen = conditions: in vivo
[7] = tested on: IL8, LITAF, IL-6, iNOS, TNFSF15 expression; design: species or system broiler chickens (Ross/Ross); conditions: in vivo
[8] = tested on: IL8, LITAF, TNFSF15, IL-6, iNOS, IL-1β expression; design: species or system broiler chickens (Ross/Ross); conditions: in vivo

virginiamycin [VM]
Feed Conversion Day 0-21 ([1]; CP): 1.746 ^bcdef
Feed Conversion Day 0-28 ([1]; CP): 1.706 ^bcd
Feed Conversion Day 14-21 ([1]; CP): 1.566 ^d
Feed Conversion Day 14-28 ([1]; CP): 1.563 ^bcd
Weight Gain Day 0-21 ([1]; CP): 0.511 ^bcd
Weight Gain Day 0-28 ([1]; CP): 0.742 ^b
Weight Gain Day 14-21 ([1]; CP): 0.295 ^bcd
Weight Gain Day 14-28 ([1]; CP): 0.526 ^bcd
Lesion Score ([1]; CP, 0 to 3 score): 0.2^cd
Necrotic Enteritis Mortality, % ([1]; CP, listed as Virginiamycin): 6.3^bc %
Necrotic Enteritis Mortality, % ([1]; CP, listed as virginiamycin): significantly better than no product
Rank (lesion score, necrotic enteritis mortality, d 14-28 weight gain and feed conversion ratio) ([1]; Table A, birds with a Clostridium perfringens challenge): 1
reduction of disease, in words ([1]; in vivo): numerically the best
Feed Conversion Day 0-21 (E. maxima): 1.676 ^ef
Feed Conversion Day 0-28 (E. maxima): 1.604 ^e
Feed Conversion Day 14-21 (E. maxima): 1.550 ^d
Feed Conversion Day 14-28 (E. maxima): 1.480 ^d
Lesion Score (E. maxima): 0.0^d
Necrotic Enteritis Mortality, % (E. maxima): 0.0^c %
Weight Gain Day 0-21 (E. maxima): 0.569 ^ab
Weight Gain Day 0-28 (E. maxima): 0.845 ^a
Weight Gain Day 14-21 (E. maxima): 0.325 ^a
Weight Gain Day 14-28 (E. maxima): 0.601 ^a
Feed Conversion Ratio Day 0-10 [2]: 1.28^b
Feed Conversion Ratio Day 0-24 [2]: 1.34^ef
Feed intake, g Day 0-10 [2]: 22.6^ab g
Feed intake, g Day 10-24 [2]: 72.2^abc g and 72.2^abe g
Gain, g Day 0-10 [2]: 180^a g
Gain, g Day 0-24 [2]: 983^a g
Gain, g Day 10-24 [2]: 804^a g
Mortality, % Day 0-10 [2]: 0^f %
Mortality, % Day 10-24 [2]: 0.63^bc %
performance [2]: improved performance
Feed Conversion Ratio Day 0-10 [3]: 1.22^b
Feed Conversion Ratio Day 0-24 [3]: 1.33^f
Feed Conversion Ratio Day 10-24 [3]: 1.36^e
Feed intake, g Day 0-10 [3]: 20.9^cde g
Feed intake, g Day 0-24 [3]: 50.5^a g
Feed intake, g Day 10-24 [3]: 73.6^a g
Gain, g Day 0-10 [3]: 174^ab g
Gain, g Day 0-24 [3]: 980^a g
Gain, g Day 10-24 [3]: 806^a g
Lesions Day 20 [3]: 1.025^a
Mortality, % Day 0-10 [3]: 0.63^ef %
Mortality, % Day 10-24 [3]: 0.63^bc %
Gain, g Day 10-24 ([3]; listed as virginiamycin): improved gain compared to the diet with no product
Feed Conversion Ratio Day 0-24 [4]: 1.38^abcd
Feed Conversion Ratio Day 10-24 [4]: 1.43^ab
Feed intake, g Day 0-10 [4]: 20.0^efg
Feed intake, g Day 0-24 [4]: 41.7^f g
Feed intake, g Day 10-24 [4]: 58.7^g
Gain, g Day 0-10 [4]: 166^cd g
Gain, g Day 0-24 [4]: 788^f g
Gain, g Day 10-24 [4]: 622^f g
Lesions Day 20 [4]: 1.150^a
Mortality, % Day 0-10 [4]: 0.63^ef %
Mortality, % Day 10-24 [4]: 0.63^bc %
gain [4]: higher gains than adding NP
Daily Feed Intake, g 0-10 d [5]: 21.2^a g
Daily Feed Intake, g 0-24 d [5]: 47.6^ab g
Daily Feed Intake, g 10-24 d [5]: 68.2^b g
FCR (F:G) 0-10 d [5]: 1.24^c
FCR (F:G) 0-24 d [5]: 1.35^b
FCR (F:G) 10-24 d [5]: 1.39^b
Gain, g 0-10 d [5]: 173^a g
Gain, g 0-24 d [5]: 917^a g
Gain, g 10-24 d [5]: 744^a g
Lesion Score at d-20 [5]: 0.767
Mortality, % 0-10 d [5]: 0.42^c %
Mortality, % 10-24 d [5]: 0.63%
feed conversion [6]: improved; also recorded: greatest improvement at 1.5 ppm
feed intake [6]: improved
gain [6]: improved; also recorded: higher gain that those birds not fed VM; also recorded: helps improve gain; also recorded: not at 1.5 ppm AFL
lesion scores [6]: increased
mortality [6]: decreased
% NE Mortality (Clostridium perfringens): 1.6 bc %
Feed Consumption D0-21 (Clostridium perfringens): 4.733 b
Feed Consumption D0-28 (Clostridium perfringens): 6.313 b
Feed Consumption D14-21 (Clostridium perfringens): 2.312 c
Feed Consumption D14-28 (Clostridium perfringens): 2.891 bc
Feed Conversion D0-21 (Clostridium perfringens): 1.947 bc
Feed Conversion D0-28 (Clostridium perfringens): 1.929 bc
Feed Conversion D14-21 (Clostridium perfringens): 1.752 c
Feed Conversion D14-28 (Clostridium perfringens): 1.797 c
Weight Gain D0-21 (Clostridium perfringens): 0.316 b
Weight Gain D14-21 (Clostridium perfringens): 0.171 a
Weight Gain D14-28 (Clostridium perfringens): 0.367 b
NE (0-3) Lesion Score (Clostridium perfringens; DOT 21): 0.5 ab
antibodies to α-toxin (optical density) (α-toxin antigen): notable increases
serum antibody levels against α-toxin (α-toxin antigen): significantly higher
serum antibody levels against the NetB toxin antigen (NetB toxin antigen): higher
serum antibody response against NetB toxin antigen (NetB toxin antigen): increased
IL8 expression [7]: decreased
IL-6 expression [7]: generally decreased
LITAF expression [7]: decreased
iNOS expression [7]: generally decreased
TNFSF15 expression [8]: decreased
iNOS expression [8]: decreased
